Read-outs that look alike come from different tables or passages of the source.
How the values were obtained:
normal animals [1] = details: cited from earlier work
normal animals [2] = details: cited from earlier work; remark: listed apart in the source
[3] = tested on: central mGlu2 and mGlu3 receptors; details: in vivo; cited from earlier work
C57Bl6/J mice = details: cited from earlier work
Helpless (H) mice = details: cited from earlier work; for activity in the tail suspension test: Helpless (H) mice
mice = details: treated mice; cited from earlier work
[4] = tested on: Aβ-induced neurodegeneration; details: cited from earlier work
human mGlu2 = target: T1, human mGlu2 (Homo sapiens, UniProt Q14416); assay: mGlu2 GIRK cell-based thallium flux assay; details: HEK-293 co-expressing human mGlu2 and GIRK; EC80 glutamate
T1 construct: expressed in transfected cells; host or cells: HEK-293
T1 sequence (Q14416 19-872): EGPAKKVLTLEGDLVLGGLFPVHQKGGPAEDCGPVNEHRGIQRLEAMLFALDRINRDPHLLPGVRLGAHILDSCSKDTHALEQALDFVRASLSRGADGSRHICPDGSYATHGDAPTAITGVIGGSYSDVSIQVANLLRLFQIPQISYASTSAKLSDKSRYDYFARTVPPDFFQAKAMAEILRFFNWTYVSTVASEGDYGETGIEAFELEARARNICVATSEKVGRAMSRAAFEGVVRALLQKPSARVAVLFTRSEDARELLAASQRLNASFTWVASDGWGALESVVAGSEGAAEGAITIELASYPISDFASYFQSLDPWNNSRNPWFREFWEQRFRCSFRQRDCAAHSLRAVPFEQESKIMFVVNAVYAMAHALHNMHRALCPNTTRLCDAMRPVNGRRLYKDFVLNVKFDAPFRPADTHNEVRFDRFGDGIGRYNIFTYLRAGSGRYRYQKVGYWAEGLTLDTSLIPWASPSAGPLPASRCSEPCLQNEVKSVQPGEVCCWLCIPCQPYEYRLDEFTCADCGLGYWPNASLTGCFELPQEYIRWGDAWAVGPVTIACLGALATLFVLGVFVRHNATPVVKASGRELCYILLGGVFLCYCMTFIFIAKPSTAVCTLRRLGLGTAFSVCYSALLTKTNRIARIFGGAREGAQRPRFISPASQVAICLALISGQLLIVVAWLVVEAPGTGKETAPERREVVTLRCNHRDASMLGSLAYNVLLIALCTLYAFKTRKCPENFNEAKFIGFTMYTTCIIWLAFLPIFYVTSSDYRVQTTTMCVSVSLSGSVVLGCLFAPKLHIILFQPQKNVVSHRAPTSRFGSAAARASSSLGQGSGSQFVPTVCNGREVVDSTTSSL
Experimental: (§1) Human embryonic kidney (HEK-293) cell lines stably co-expressing human mGlu2 and G protein-coupled inwardly rectifying potassium (GIRK) channels, or human mGlu3 and GIRK, were used for in vitro evaluation of compound activity through thallium flux assays.
(§2) The day before the assay, cells from cell lines co-expressing human mGlu2 or mGlu3 and GIRK, as described above, were plated in black-walled, clear-bottomed, amine-coated 384-well plates in 20 μL of assay medium (DMEM containing 10% FBS, 1 M HEPES, 100 mM sodium pyruvate) at a density of 15,000 cells/well and stored at 37° C. in the presence of 5% CO2. On the day of the assay, medium was removed and replaced with assay buffer (Hanks balanced salt solution, 20 mM HEPES, 4.16 mM sodium bicarbonate, pH 7.2) containing 0.328 μM FluoZin-2 AM dye. The dye was initially made up as a 2.85 mM stock in DMSO and diluted 1:1 with 10% pluronic acid before adding to the buffer. Cells were then incubated for one hour at room temperature. After dye-loading, excess extracellular dye was removed by exchanging the dye solution with assay buffer resulting in 20 μL of buffer in each well. After a ten-minute rest period, cell plates were loaded into a Hamamatsu μCell kinetic imaging plate reader to monitor fluorescence using 470 nm excitation and 540 nm emission settings.
(§3) After collection of baseline fluorescence, 20 μL of compound solution prepared as a concentration response series in assay buffer was added. The concentration series was created from a 10 mM DMSO compound stock by performing a 1:3 serial dilution in DMSO followed by a 1:167 dilution of each DMSO solution in buffer. […] Multiple reference wells containing no compound received either no glutamate (for a baseline reference), EC80 glutamate, or ECmax glutamate (for normalization to maximum response). Signal was monitored an additional 2.5 minutes after the glutamate addition. Fluorescence was measured throughout the experiment at a frequency of 1 measurement per every 2 seconds before the glutamate addition and a frequency of 1 measurement per every 1 second after the glutamate addition. Each compound concentration series occurred one time in each plate, and replicates from two or three plates were used in each experimental run. Thallium solutions were handled and disposed of according to guidelines from the Vanderbilt University Chemical Safety department.
(§4) Data were normalized using a static ratio function (F/F0) by dividing every fluorescent measurement by the initial fluorescent value for the corresponding well. The increase in signal resulting from the glutamate/thallium addition of the second add was measured by determining the slope from 3 seconds to 13 seconds after the addition. The average of all baseline slopes (no compound, no glutamate) was determined and this value was subtracted from all other slope values. The average of all ECmax slopes was determined and this value was used to normalize the baseline-corrected slopes to a percent max value (% Emax). The % Emax values for each compound series were plotted versus the log of the concentration and fit to a 4-parameter logistical equation with no fixed parameters.
(§5) Potency is reported as the IC50 resulting from the curve fit.

human mGlu3 = target: T2, human mGlu3 (Homo sapiens, UniProt Q14832); assay: mGlu3 GIRK cell-based thallium flux assay; details: HEK-293 co-expressing human mGlu3 and GIRK; EC80 glutamate
T2 construct: expressed in transfected cells; host or cells: HEK-293
T2 sequence (Q14832 23-879): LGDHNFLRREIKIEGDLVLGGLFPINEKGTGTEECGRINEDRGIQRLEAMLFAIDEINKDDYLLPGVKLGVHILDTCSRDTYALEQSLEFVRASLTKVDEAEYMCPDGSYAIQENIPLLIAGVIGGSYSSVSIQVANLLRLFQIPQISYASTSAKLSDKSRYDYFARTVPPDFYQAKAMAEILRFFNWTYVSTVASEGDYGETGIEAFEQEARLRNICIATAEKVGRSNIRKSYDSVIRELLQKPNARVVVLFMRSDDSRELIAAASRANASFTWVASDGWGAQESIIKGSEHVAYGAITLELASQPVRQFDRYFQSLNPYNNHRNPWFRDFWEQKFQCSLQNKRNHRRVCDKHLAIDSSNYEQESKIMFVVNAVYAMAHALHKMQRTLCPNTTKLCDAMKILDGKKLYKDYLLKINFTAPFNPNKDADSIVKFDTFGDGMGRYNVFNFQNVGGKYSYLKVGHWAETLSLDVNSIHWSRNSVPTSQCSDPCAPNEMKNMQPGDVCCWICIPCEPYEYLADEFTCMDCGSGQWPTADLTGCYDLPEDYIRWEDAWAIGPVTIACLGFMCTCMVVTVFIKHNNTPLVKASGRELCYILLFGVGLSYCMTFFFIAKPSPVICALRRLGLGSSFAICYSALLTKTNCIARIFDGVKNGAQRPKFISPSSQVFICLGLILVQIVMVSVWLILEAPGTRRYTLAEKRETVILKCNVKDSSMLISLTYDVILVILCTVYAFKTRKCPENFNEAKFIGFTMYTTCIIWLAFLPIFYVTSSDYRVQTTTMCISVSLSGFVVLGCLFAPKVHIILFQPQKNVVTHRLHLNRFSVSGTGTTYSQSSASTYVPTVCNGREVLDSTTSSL
Experimental: as §1, §2, §3, §4, §5

[5] = in vivo; cited from earlier work
group II mGlu receptors = details: cited from earlier work
[6] = treatment for 7 days; cited from earlier work
[7] = tested on: olfactory bulbectomized rats; details: repeated administration for 14 days; cited from earlier work
[8] = tested on: social isolation-reared mice; details: cited from earlier work

In the case of `N[C@](CC1c2ccccc2Oc2ccccc21)(C(=O)O)[C@H]1C[C@@H]1C(=O)O` [LY341495], the “Antidepressant-like effects in rat FST” value (normal animals [1]) is given as “Antidepressant-like effects”, the “Antidepressant-like effects in mouse TST” value (normal animals [2]) is given as “Antidepressant-like effects” and the “hypolocomotor effect of mGlu2/3 agonist (LY379268)” value [3] is given as “achieved the same result”. For the same compound, the “immobility time in the FST” value (C57Bl6/J mice) was “dose-dependently reduced”, the “activity in the tail suspension test” value (Helpless (H) mice) was “active” and the “antidepressant effect in helpless mice” value (Helpless (H) mice; acute administration) was “potent antidepressant effect”. The marble-burying behavior (mice) was “significantly reduce marble-burying behavior” and the “amplification of Aβ-induced neurodegeneration by LY566332” value [4] was “prevented”.
In the case of `COc1ccc(-c2cn3c(=O)[nH]nc3cc2OCc2nccn2C)c(F)c1` [Compound 9, 6-(2-fluoro-4-methoxyphenyl)-7-((1-methyl-1H-imidazol-2-yl)methoxy)-[1,2,4]triazolo[4,3-a]pyridin-3(2H)-one], the IC50 (human mGlu2) is reported as 0.216 µM and the “Human mGlu3 GIRK IC50” value (human mGlu3) is reported as “Inactive”.
In the case of `Cn1ccc(COc2cc3n[nH]c(=O)n3cc2-c2ccc(F)cc2)n1` [Compound 1, 6-(4-fluorophenyl)-7-((1-methyl-1H-pyrazol-3-yl)methoxy)-[1,2,4]triazolo[4,3-a]pyridin-3(2H)-one], the IC50 (human mGlu2) is reported as 0.771 µM and the “Human mGlu3 GIRK IC50” value (human mGlu3) is reported as “Inactive”.
In the case of `COc1ccc(-c2cn3c(=O)[nH]nc3cc2OCc2csc(C)n2)c(F)c1` [Compound 8, 6-(2-fluoro-4-methoxyphenyl)-7-((2-methylthiazol-4-yl)methoxy)-[1,2,4]triazolo[4,3-a]pyridin-3(2H)-one], the IC50 (human mGlu2) is reported as 0.0542 µM and the “Human mGlu3 GIRK IC50” value (human mGlu3) is reported as “Inactive”.
For `CNCCC(Oc1ccc(C(F)(F)F)cc1)c1ccccc1` (centres unmarked) [fluoxetine], the “antidepressant effect in helpless mice” value (Helpless (H) mice; chronic (21 days) treatment) is listed as “full antidepressant effect”.
In the case of `CN1C(=O)CN=C(c2ccccc2)c2cc(Cl)ccc21` [diazepam], the freezing behavior [5] is listed as “significantly decreased”.
With `COc1ccc(-c2cn3c(=O)[nH]nc3cc2OCc2ccn(C)n2)cc1` [Compound 11, 6-(4-methoxyphenyl)-7-((1-methyl-1H-pyrazol-3-yl)methoxy)-[1,2,4]triazolo[4,3-a]pyridin-3(2H)-one] the IC50 (human mGlu2) was 0.0858 µM and the “Human mGlu3 GIRK IC50” value (human mGlu3) was “Inactive”.
For `CCS(=O)(=O)N(Cc1cccnc1)c1cccc(-c2ccc(C#N)cc2)c1` [LY566332], the Aβ-induced neurodegeneration [4] is listed as “amplified”.
For `CCCCCCCOC(=O)[C@@]1(F)[C@@H]2C[C@@H](OCc3ccc(Cl)c(Cl)c3)[C@@](N)(C(=O)O)[C@@H]21` [BCI-838], the “duration of inhibition of group II mGlu receptors by brain concentration of active metabolite BCI-632” value (group II mGlu receptors; once-daily oral dosing) is given as 22 h, the “Dutch APP transgene-associated learning and memory impairment” value (group II mGlu receptors; three months of treatment) is given as “reversed” and the anxiolytic effects (group II mGlu receptors; three months of treatment) is given as “provided anxiolytic effects”. The “levels of monomeric and oAβ peptides in the hippocampus and cortex” value (group II mGlu receptors; three months of treatment, two AD mouse models) was “decreased” and the “hippocampal progenitor cell proliferation” value (group II mGlu receptors; wild-type and Alzheimer's diseased mice, 3 months) was “stimulated”.
In the case of `COc1ccc(-c2cn3c(=O)[nH]nc3cc2OCc2ccn(C)n2)c(F)c1` [Compound 7, 6-(2-fluoro-4-methoxyphenyl)-7-((1-methyl-1H-pyrazol-3-yl)methoxy)-[1,2,4]triazolo[4,3-a]pyridin-3(2H)-one], the IC50 (human mGlu2) is reported as 0.089 µM and the “Human mGlu3 GIRK IC50” value (human mGlu3) is reported as “Inactive”.
For `N[C@]1(C(=O)O)[C@H]2[C@@H](C[C@H]1OCc1ccc(Cl)c(Cl)c1)[C@]2(F)C(=O)O` [MGS0039], the “Antidepressant-like effects in rat FST” value (normal animals [1]) is given as “Antidepressant-like effects”, the “Antidepressant-like effects in mouse TST” value (normal animals [2]) is given as “Antidepressant-like effects” and the “number of escape failures” value [6] is given as “significantly reduced”. For the same compound, the “hyperactivity in the open field test” value [7] was “attenuated the hyperactivity”, the “learning deficit in the passive avoidance test” value [7] was “attenuated the learning deficit” and the “immobility in the FST” value [8] was “reversed the increased immobility”. The marble-burying behavior (mice) was “reduced marble-burying behavior in a significant and dose dependent manner”, the spontaneous locomotor activity (mice) was “no significant change” and the freezing behavior [5] was “significantly decreased”.
For `Cc1cc(-c2cccc(C3=Nc4cc(C)c(C(F)(F)F)cc4NC(=O)C3)c2)cc(C)n1` [RO4491533], the “hypolocomotor effect of mGlu2/3 agonist (LY379268)” value [3] is listed as “reversed the hypolocomotor effect”, the “immobility time in the FST” value (C57Bl6/J mice) is listed as “dose-dependently reduced” and the “activity in the tail suspension test” value (Helpless (H) mice) is listed as “active”.
For `COc1ccc(-c2cn3c(=O)[nH]nc3cc2OCc2cc(C)n(C)n2)c(F)c1` [Compound 10, 7-((1,5-dimethyl-1H-pyrazol-3-yl)methoxy)-6-(2-fluoro-4-methoxyphenyl)-[1,2,4]triazolo[4,3-a]pyridin-3(2H)-one], the IC50 (human mGlu2) was 0.119 µM and the “Human mGlu3 GIRK IC50” value (human mGlu3) was “Inactive”.
For `Cc1csc(COc2cc3n[nH]c(=O)n3cc2-c2ccc(F)cc2)n1` [Compound 6, 6-(4-fluorophenyl)-7-((4-methylthiazol-2-yl)methoxy)-[1,2,4]triazolo[4,3-a]pyridin-3(2H)-one], the IC50 (human mGlu2) was 0.169 µM and the “Human mGlu3 GIRK IC50” value (human mGlu3) was “Inactive”.
In the case of `Cc1nc(COc2cc3n[nH]c(=O)n3cc2-c2ccc(F)cc2)cs1` [Compound 3, 6-(4-fluorophenyl)-7-((2-methylthiazol-4-yl)methoxy)-[1,2,4]triazolo[4,3-a]pyridin-3(2H)-one], the IC50 (human mGlu2) is reported as 0.104 µM and the “Human mGlu3 GIRK IC50” value (human mGlu3) is reported as “Inactive”.
